Where “and” joins values, the source holds several entries; their conditions need not be identical. Equal values may be shown once.
Legend:
[1] = tested on: sheep plasma; assay: Sheep's Plasma Clotting Assay (USP coagulation test); assay type: biochemical; conditions: for Equivalence to Heparin: calculated from volumes giving 50% clotting versus heparin standard
Description: In order to understand what the working concentration range could be for the anesthetics tested, a Sheep's Plasma Clotting Assay was performed. This test is based on the United States Pharmacopeia (USP) standard test for coagulation and is often used to understand heparin potency. […] Sheep plasma was thawed in a water bath set to 37° C. To facilitate thawing, the plasma in the bottle was inverted every 15 minutes. The plasma was thawed after about 45-60 minutes. The thawed sheep plasma was filtered through glass wool or filtered into a clean glass beaker or flask, to remove particulate matter and to activate it. About 70-80 mL of filtered sheep plasma was collected. Next, a set of test tubes were prepared (VWR Disposable 13×100-mm) in a 6×12 rack. Ten test tubes were needed for each test solution including ten test tubes for the heparin standard. […] For each test solution, every (10) test tube received different volumes of 0.9% NaCl. […] Next, the local anesthetics were added, namely, tetracaine at 30 mg/mL, dibucaine at 30 mg/mL, and bupivacaine at 38 mg/mL. Each of the ten test tubes received different volumes of test solutions, starting with 280 μL and increasing in volume by 20 μL until reaching a volume of 460 μL at the tenth tube. The total volume of saline and test solutions in each of the tubes was 800 μL. A standard solution, namely, USP heparin sodium standard, was also prepared in the same way, with the starting concentration of heparin being 5.6 U/mL. Next, 1 mL of sheep plasma for heparin assay (Bio-Supplies, Inc, P-SPR-1500) was pipetted into each tube, and the rack was gently shaken to ensure mixing. Two hundred μL of a 1% CaCl2 solution was placed into each tube. The total volume for each tube is 2 mL. Each tube was capped with a VWR Plug-type cap, and contents of each tube were inverted six times to ensure that the entire inner wall of each tube was wet. Tubes were incubated for 1 hour at room temperature. After the 1 hour time period, the extent of clotting in each tube was determined by gently shaking each individual test tube (tapping the end gently is acceptable) and then tilting the tube to observe a clot both vertically and horizontally. The degree to which each tube developed a clot was recorded using the following criteria (per the USP Standard) for the visual inspection of the tubes: • 0% Clotting=No apparent clot formed. • 25% Clotting=Small observable clot with mostly liquid. Clot is very mobile. • 50% Clotting=Plasma is completely clotted but mobile. • 75% Clotting=Clot is not mobile but liquid is still present. • 100% Clotting=Clot is not mobile and no liquid is present.
Because of the testing protocol, starting concentrations of anesthetics were diluted from the original formulation. Calculations can be made to compare the efficacy of these anesthetics to the standard anticoagulant heparin by calculating the point at which both standard and test samples yield 50% clotting. Using this calculation, the anesthetic concentration can be referenced back to a measure of U/mL of heparin equivalence.

[2] = tested on: S. epidermidis; assay: Minimum Biofilm Inhibitory Concentration (MBIC) test; assay type: cell-based, Staphylococcus epidermidis; conditions: for MBIC: adhered cells, 24 hours incubation; for MBIC Assuming 2 mL lock volume: amount in 2 mL lock volume
Description: (§1) To further evaluate the efficacy of local anesthetics in antimicrobial lock solutions of the present invention, the minimum concentration at which these drugs can inhibit biofilm growth was tested. The local anesthetics identified in Table 4 were tested against three different species of bacteria identified in Table 3 to assess the antimicrobial efficacy against adhered microbes. It is known that adhered microbes, or biofilms, can be more resistant to antimicrobials than planktonic cells.
(§2) Experiments were conducted against adhered microbes as follows: first, a test tube containing 10 mL of sterile TSB was inocubated with BD BBL™ Qualiswab™, with the strain of interest. The tube was placed in an incubator at 37° C. overnight. The next day, a flask containing 25 mL of sterile TSB (or Sabouraud Dextrose Broth (SDB) for fungal species) was inoculated with 1 mL of bacterial suspension. The flask was placed in an incubator at 37° C. and shaken at 150 RPM. The next day a new flask containing 25 mL of TSB (or SDB) media was inoculated with 1 mL from the previous culture. The bacterial or fungal species were allowed to grow to log phase.
(§3) After the microbes entered the log phase, their concentration was checked to ensure that they had reached a minimum of 1×10^8 CFU/mL per a 0.5 MacFarland standard. Microbes were diluted to a concentration of 1×10^5 CFU/mL using a nephelometer and 200 μL of the microbial suspensions were plated on each of the wells of a 96 well plate. The plate was incubated in a standard incubator at 37° C. for 2 hours to allow for microbial cell adhesion. Next, dilutions of the desired concentrations of antimicrobials were prepared. In a separate, blank plate, 1:2 serial dilutions were prepared with the highest concentration of the antimicrobial to the left of the plate, decreasing in concentration towards the right of the plate. For example, 170 μL of the highest concentration of an antimicrobial was dispensed in column 1 (left of plate). Each of the rest of the columns received 170 μL of saline. Column 2 received 170 μL of antimicrobial, making for a 1:2 dilution (or 50% of original concentration). Contents of Column 2 were then transferred to 3, then from 3 to 4, and so forth. Each well was supplemented with 20% media (TSB for S. epidermidis and P. aeruginosa and SDB for C. albicans), thereby ensuring the viability of the cells over the test time period (24 hours). Positive control wells had 20% media in saline. The bacterial plate was removed from the incubator, and bacterial suspension discarded (adhered cells remain on plate). The antimicrobial formulations identified in Table 4 were then added to the bacterial plate and incubated in a standard incubator at 37° C. for 24 hours. After this time period, solutions in the plate were discarded and plates were rinsed with 200 μL of saline. The cells were then fixed with 200 μL of 95% ethanol for 30 minutes, and allowed to air dry for 10 minutes. Next, the cells were stained for 20 minutes with 250 μL of a filtered solution of 2% crystal violet dye. The plates were then rinsed three times with water, and the 2% crystal violet dye was solubilized with 300 μL of 95% ethanol. The plates were allowed to stand for 10 minutes to complete solubilization and then the plates were read on a spectrophotometer at 570 nm absorbance, wherein high absorbance readings of >0.600 indicated microbial growth. Columns in the plate that had no growth were recorded as the […] (MBIC). FIG. 2 illustrates the MBIC corresponding to the specific local anesthetics.

[3] = tested on: P. aeruginosa; assay: as above; assay type: cell-based, Pseudomonas aeruginosa; conditions: for MBIC: adhered cells, 24 hours incubation; for MBIC Assuming 2 mL lock volume: amount in 2 mL lock volume
Description: as §1, §2, §3

[4] = tested on: C. albicans; assay: as above; assay type: cell-based, Candida albicans; conditions: for MBIC: adhered cells, 24 hours incubation; for MBIC Assuming 2 mL lock volume: amount in 2 mL lock volume
Description: as §1, §2, §3

CCCCN1CCCCC1C(=O)Nc1c(C)cccc1C.Cl (stereo not shown) [Bupivacaine, Bupivacaine HCl]
coagulation ([1]; at all concentrations tested): 75%
MBIC [2]: 8.12 mg/mL
MBIC Assuming 2 mL lock volume [2]: 16.24 mg
MBIC [3]: 16.25 mg/mL
MBIC Assuming 2 mL lock volume [3]: 32.5 mg
MBIC [4]: No inhibition
MBIC Assuming 2 mL lock volume [4]: No inhibition

CCCCNc1ccc(C(=O)OCCN(C)C)cc1.Cl [Tetracaine, Tetracaine HCl]
volume at 50% coagulation ([1]; Rep 1): 350 µL
Equivalence to Heparin ([1]; per replicate, HCl): 6.06 U/mL and 6.24 U/mL (2×)
Equivalence to Heparin ([1]; per replicate, listed as tetracaine, HCl): 6.25 U/mL
50% clotting range ([1]; final concentration in tube, 1 hour at room temperature, per replicate, HCl): 5.4 mg/mL (2×) and 5.1-5.4 mg/mL
MBIC ([2]; HCl): 0.94 mg/mL
MBIC ([2]; listed as tetracaine, HCl): 0.9 mg/mL
MBIC Assuming 2 mL lock volume [2]: 1.88 mg
MBIC ([3]; HCl): 6.41 mg/mL
MBIC ([3]; listed as tetracaine, HCl): 1.88 mg/mL
MBIC Assuming 2 mL lock volume [3]: 12.82 mg
MBIC [4]: 0.24 mg/mL
MBIC Assuming 2 mL lock volume [4]: 0.48 mg

From patent US10350334B2, “Catheter locking solution having antimicrobial and anticoagulation properties” (Becton, Dickinson and Company, priority 2009, dated 2019)
